Experiments:
laser-induced CNV = test: Laser-induced CNV in wild-type mice, intravitreous injection of complement blockers; format: in vivo; settings: intravitreous injection immediately after laser injury, compared with control peptide or isotype control antibodies
Procedure: Laser photocoagulation (532 nm, 200 mW, 100 ms, 75 μm) (OcuLight GL, Iridex) was performed (volume studies: 3/eye; protein analyses/flow cytometry: 12/eye) on both eyes of each animal to induce CNV as previously described in Sakurai, E., Taguchi, H., Anand, A., Ambati, B. K., Gragoudas, E. S., Miller, J. W., Adamis, A. P. & Ambati, J. (2003) Invest Ophthalmol Vis Sci 44, 2743-9; and Sakurai, E., Anand, A., Ambati, B. K., van Rooijen, N. & Ambati, J. (2003) Invest Ophthalmol Vis Sci 44, 3578-85. CNV volumes were measured by scanning laser confocal microscope (TCS SP, Leica) as previously reported (Id.) with 0.5% FITC-Griffonia simplicifolia Isolectin B4 (Vector Laboratories) or 0.5% FITC-rat antibody against mouse CD31 (BD Pharmingen). Volumes obtained by lectin and CD31 staining were highly correlated (r^2=0.95). […]
Because the probability of each laser lesion developing CNV is influenced by the group to which it belongs, the mouse, the eye, and the laser spot, the mean lesion volumes were compared using a linear mixed model with a split plot repeated measures design, as previously described. […] Statistical significance was determined at the 0.05 level. […]

human RPE cells = test: VEGF secretion by human RPE cells (VEGF ELISA); format: cell-based; settings: 50 ng/ml; confluent and subconfluent conditions; compared to PBS
Procedure: Human RPE cells (gift of David R. Hinton, University of Southern California) were cultured in Dulbecco's modified essential medium (Invitrogen) containing 10% fetal bovine serum, penicillin G (100 U/ml), streptomycin sulfate (0.1 mg/ml) (all from Sigma-Aldrich) at 37° C. under 10% CO2 and 90% room air. Cells were used for experiments upon attaining 80% or 100% confluence.
(§1) The RPE/choroid complex was dissected from the mouse eye and sonicated in lysis buffer (20 mM imidazole HCl, 10 mM KCl, 1 mM MgCl2, 10 mM EGTA, 1% Triton X-100, 10 mM NaF, 1 mM Na molybdate, 1 mM EDTA with protease inhibitor (Sigma-Aldrich)) on ice for 45 sec. VEGF protein levels (pg/ml) in the RPE cell culture supernatant or the RPE/choroid lysate were determined by ELISA (R&D Systems) and normalized to total protein (μg/ml) (Bio-Rad).
(§2) VEGF protein data are represented as the mean±s.e.m. of at least 3 independent experiments and compared using a two-tailed Student's t-test. The null hypothesis was rejected at P<0.05.

[1] = test system: macrophages or neutrophils in the choroid; test: Leukocyte numbers in the choroid after intravitreous injection (flow cytometry); format: in vivo, mice; settings: 4 hours after intravitreous injection; data not shown
Procedure: Single cell suspensions isolated from mouse RPE/choroids via collagenase D treatment (20 U/mL; Roche Diagnostics) were incubated in Fc block (0.5 mg/mL; BD Pharmingen) for 15 min on ice, stained with Cy5-rat antibody to mouse F4/80 (1:30; Serotec), FITC-hamster antibody to mouse CD11c (1:100; Serotec), or PE-rat antibody to mouse Gr-1 (1:200; eBioscience), and subjected to FACS analysis (FACScalibur, BD Biosciences). Macrophages and neutrophils were defined as F4/80+CD11c- and Gr-1+F4/80-cells, respectively.

VEGF = VEGF levels in mouse eye tissue after intravitreous injection (VEGF ELISA); format: in vivo; settings: wild-type mice, 4 hours after injection, dose-dependent
Procedure: as §1, §2

| Molecule | CNV (volume of laser-induced CNV) (laser-induced CNV) | human RPE cell secretion of VEGF (human RPE cells) | number of macrophages or neutrophils in the choroid [1] | VEGF levels in the RPE/choroid (VEGF) |
| --- | --- | --- | --- | --- |
| N=C(N)NCCC[C@H](NC(=O)COCC(c1ccccc1)c1ccccc1)C(=O)O [C3aRA, N^2-[(2,2-diphenylethoxy)acetyl]-arginine] | reduced |  |  |  |
| AcF[OPdChaWR] [C5aRA] | reduced |  |  |  |
| C3a: activated complement component 3 (human), applied to RPE cells or injected intravitreously |  | upregulated | no increase | increase |
| C5a: activated complement component 5 (human), applied to RPE cells or injected intravitreously (protein, UniProt P01031 678-751, looked up, C5a anaphylatoxin) C5a anaphylatoxin: TLQKKIEEIAAKYKHSVVKKCCYDGACVNNDETCEQRAARISLGPRCIKAFTECCVVASQLRANISHKDMQLGR |  | upregulated | no increase | increase |
